The values that follow come from ChEMBL document CHEMBL1201862, “PubChem BioAssay data set” (2004).

Calls of active or inactive are those of the source.

Assay [1] is described as follows: cytotoxicity in MITF-independent A375 cells – cell-based, CellTiter-Glo luminescence, dry powder, set 4, counter-screen for MITF inhibitor project, dose response (AID 624364).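 Further: A375 melanoma cells are MITF independent so this is a counter screen.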 It is filed as functional. Conditions: A-375. A general note: Cellular ATP, detected with luciferase, serves as a proxy for viable cell number.
A short description of assay [2]: viability loss in MITF-independent A375 cells – cell-based, CellTiter-Glo luminescence, dry powder, set 2, counter-screen for MITF inhibitor project, dose response (AID 624489).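 Further: actives are compounds lowering A375 viability meaning general cytotoxicity.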 The class given is functional. Conditions: A-375.
The target in assay [3] is Metabotropic glutamate receptor 3 (Rattus norvegicus, UniProt P31422). Kind of assay: inhibition of rat mGlu3 glutamate signaling – HEK/GIRK cells, thallium flux, dose response (AID 651839). It is filed as functional.
A short description of assay [4]: viability loss in HEK293 cells – cell-based, plate reader, cherry-picked samples, cytotoxicity control, dose response (AID 743446). It is filed as functional.
Assay [5] in a line: blockade of melanocortin 4 receptor signaling – cell-based, plate reader, cherry pick, counter-screen for LGR2 antagonist project, dose response (AID 743444).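 Further: transfected HEK 293 cells stimulated with alpha-MSH peptide; potency of inhibitors of the alpha-MSH evoked signal.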 The class given is functional. In general terms: Counterscreens check selectivity or assay interference.
Assay [6] is described as follows: blockers of bursicon-stimulated LGR2 cAMP reporter – cell-based, HEK293, CRE-luciferase reporter, cherry pick, set 2, dose response (AID 743343).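 Further: transfected cells were stimulated with diluted bursicon conditioned medium after compound addition.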 The class given is functional. Background: In a reporter assay the amount or activity of a reporter protein is the signal.
Assay [7] is described as follows: A549 cell cytotoxicity, dose response, cytotoxicity control, plate reader, cherry-pick, antagonist series (AID 743412). It is filed as functional, cell-based.
A short description of assay [8]: toxicity toward HepG2 liver cells – cell-based, plate reader, cherry-pick, antagonist series, cytotoxicity control, dose response (AID 743416). The class given is functional.
Assay [9] has as its system BJ. Kind of assay: cells. The class given is functional, cell-based. Conditions: Homo sapiens.
The nature of assay [10]: alpha-synuclein stem-loop luciferase translation blockers – H4 neuroglioma cells, luminescence, confirmation (AID 1988). It is filed as functional, cell-based.
Assay [11] can be described thus: HIV-1 AD8 envelope cell-cell fusion blockers – cherry-pick, dose response (AID 652062).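 Further: luciferase signal from cell-cell fusion driven by HIV-1 clade B AD8 Env; potency is for inhibitors of fusion seen as a drop in luminescence.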 The class given is functional, cell-based.
Assay [12] in a line: viability of PTEN-deleted HCT116 cells – cell-based, HCT116 PTEN knockout, dose response (AID 1047).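 Further: HCT116 colon tumor cells with PTEN knocked out; cells exposed to compound for 60 hours before readout; potency for loss of cell viability measured by luminescence.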 It is filed as functional.
The target of assay [13] is Voltage-dependent T-type calcium channel subunit alpha-1H (Homo sapiens, UniProt O95180). It is filed as functional.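 Further: channel activity triggered by adding a high calcium stimulation buffer.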
The subject of a further assay is HEK293. Briefly: EBV LMP1 TES2 canonical NF-kB signalling blockers – cell-based, HEK293, luciferase, cherry-pick, dose response (AID 588343). Conditions: Homo sapiens. The class given is functional.
Assay [14] in a line: general cell-killing toxicity readout – plate reader, dry powder samples, cytotoxicity control for PAX8 inhibitor project, dose response (AID 743021). The class given is functional, cell-based.
In another assay the target is Paired box protein Pax-8 (Homo sapiens, UniProt Q06710). Briefly: PAX8 transcriptional activity inhibition in RMG-I – RMG-I cells, luciferase, cherry-pick, dose response (AID 687027).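 Further: luciferase reporter driven by Pax8 target thyroperoxidase promoter measured by SteadyGlo luminescence.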 It is filed as functional, cell-based.
Assay [15] is described as follows: DRD fibroblast viability loss – cell-based, non-viral oncogenic, luminescence, dose response (AID 1934). It is filed as functional. Conditions: Homo sapiens.
A short description of assay [16]: luciferase reporter signal suppression in cells – H4 neuroglioma cells, luminescence, dose response (AID 1990). The class given is functional, cell-based.
A short description of assay [17]: off-target signal loss in HeLa-CEM21 co-culture – HeLa F-luc CTL cells, cherry-picked, counter-screen for HIV-1 Env fusion inhibitor project, dose response (AID 652040).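 Further: potency for signal decrease marking cytotoxic or nonspecific inhibition.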 It is filed as functional, cell-based.
Assay [18] is described as follows: blockers of HIV-1 ZM109 envelope-driven cell-cell fusion – HeLa effector, CEM target cells, luciferase, cherry-pick, dose response (AID 652058).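 Further: luciferase signal from HIV-1 Env mediated cell-cell fusion of effector and target cells.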 It is filed as functional, cell-based.
Assay [19] is described as follows: blockers of HIV-1 envelope-mediated cell-cell fusion – cherry-pick, dose response (AID 652057). It is filed as functional, cell-based.
Assay [20] can be described thus: Luminescence Cell-Based Dose Response HTS to Identify Inhibitors of 5'UTR Stem-Loop Driven Prion Protein mRNA Translation in H4 Neuroglioblastoma Cells. [Related pubchem assays: 1827 (Project Summary), 1813 (Primary HTS)]. The class given is functional.
The nature of assay [21]: viability of HCT116 lacking mutant beta-catenin – cell-based, human colon tumor, dose response (AID 1045).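 Further: HCT116 colon tumor cells with beta catenin knocked out; cells exposed to compound for 60 hours.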 The class given is functional.
The test system of assay [22] is BJ. Briefly: BJ-TERT fibroblast viability loss – cell-based, RAS-independent, luminescence, dose response (AID 1933). The class given is functional. Conditions: Homo sapiens.
Assay [23] concerns BJ. Briefly: growth inhibition of engineered Ras-driven BJ cells – cell-based, alamar blue fluorescence, cherrypicked samples, dose response (AID 2631).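 Further: confirmatory dose-response assay in RAS-dependent BJ fibroblasts engineered with TERT, LT and ST, with cytotoxicity read by fluorescence.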 It is filed as functional. Conditions: Homo sapiens.
A short description of assay [24]: HPDE-C7 pancreatic duct cell viability loss – fluorescence, HTS (AID 430). It is filed as functional, cell-based. Conditions: Homo sapiens.
A short description of assay [25]: viability loss in CEM21 cells – cell-based, CellTiter-Glo luminescence, cherry-picked, cytotoxicity control for viral fusion inhibitor project, dose response (AID 652042).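 Further: potency for signal decrease meaning cytotoxicity.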 It is filed as functional.
Assay [26] relates to BJ. Kind of assay: BJ-TERT-LT-ST fibroblast viability loss – cell-based, RAS-independent, luminescence, dose response (AID 1935).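 Further: BJ fibroblasts immortalized with TERT plus LT and ST oncogenes.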 It is filed as functional. Conditions: Homo sapiens.
In assay [27] the target is T1, Heat shock factor protein 1 (Mus musculus, UniProt P38532).
T1 sequence (P38532 whole entry): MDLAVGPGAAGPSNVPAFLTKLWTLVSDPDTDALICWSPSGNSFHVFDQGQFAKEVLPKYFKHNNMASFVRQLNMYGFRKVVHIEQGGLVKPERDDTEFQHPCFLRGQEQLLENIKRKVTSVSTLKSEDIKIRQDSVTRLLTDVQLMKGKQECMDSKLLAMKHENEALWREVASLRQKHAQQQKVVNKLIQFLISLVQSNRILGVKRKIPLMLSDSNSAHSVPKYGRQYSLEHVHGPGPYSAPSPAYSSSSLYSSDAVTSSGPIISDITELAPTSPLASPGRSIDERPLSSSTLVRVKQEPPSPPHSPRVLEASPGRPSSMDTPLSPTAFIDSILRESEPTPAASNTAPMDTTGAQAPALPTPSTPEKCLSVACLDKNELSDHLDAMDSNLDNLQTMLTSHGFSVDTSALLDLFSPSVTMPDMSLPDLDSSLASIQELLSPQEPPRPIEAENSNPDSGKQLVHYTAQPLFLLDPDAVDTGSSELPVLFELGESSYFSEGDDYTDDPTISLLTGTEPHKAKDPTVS
Kind of assay: decrease of HSF1-responsive luciferase luminescence – cell-based, NIH3T3, dose retest, confirmation (AID 2382).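 Further: NIH3T3 fibroblasts with HSF1-driven luciferase reporter stressed by proteasome inhibitor MG132; luminescence from HSF1-driven luciferase expression after 8 hours of MG132 stress.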 The class given is functional.

Assay [28] in a line: viability loss of HPDE-C7K cells – cell-based, fluorescence, HTS, primary screen (AID 431). It is filed as functional. Conditions: Homo sapiens.
Another assay can be described thus: cells. Conditions: HEK293.
Assay [29] in a line: Dd2 malaria parasite growth inhibition potency – SYBR Green, dry powder samples, dose response (AID 1159566).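 Further: potency for growth inhibition with lower SYBR green DNA signal.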 It is filed as functional, cell-based.
Assay [30] in a line: growth inhibition of yeast DHODH-expressing 3D7 parasites – SYBR Green, dry powder samples, dose response (AID 1159570).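 Further: parasite growth measured after 72 hours of compound exposure.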 It is filed as functional, cell-based.
A short description of assay [31]: growth inhibition of PfATP4-mutant resistant parasites – NITD609-resistant line, SYBR Green, dry powder, dose response (AID 1159571).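 Further: parasites synchronized at ring stage by sorbitol before testing.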 The class given is functional, cell-based.
Assay [32] can be described thus: toxicity to human HepG2 hepatoma cells – cell-based, plate reader, dry powder samples, cytotoxicity control, dose response (AID 1159569).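 Further: inhibitor potency with signal falling toward the positive control level.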 The class given is functional.
The nature of assay [33]: P. falciparum Dd2 growth inhibitors, dose response, SYBR Green, cherry-picked samples (AID 1159567). The class given is functional, cell-based.
Assay [34] is described as follows: inhibition of Env-driven cell fusion – HIV entry, plate reader, dry powder, dose response (AID 687023). The class given is functional, cell-based.
Assay [35] is described as follows: viability loss in CEM21 cells – cell-based, plate reader, dry powder, cytotoxicity control, dose response (AID 687026). The class given is functional.
A short description of assay [36]: OVCAR-3 cell viability loss – plate reader, dry powder samples, PAX8 inhibitor project, dose response (AID 743044). The class given is functional, cell-based.
Assay [37] in a line: A2780 cell killing – plate reader, dry powder samples, cytotoxicity control, dose response (AID 743046). It is filed as functional, cell-based.
Assay [38] in a line: OV-90 cell viability loss – plate reader, dry powder, SA8, PAX8 inhibitor project, dose response (AID 743149). It is filed as functional, cell-based.
The nature of assay [39]: PAX5 cellular inhibition readout – cell-based, plate reader, dry powder samples, selectivity assay for PAX8 inhibitor project, dose response (AID 743047).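 Further: HEK293 cells carrying a Pax5 driven CD19 promoter luciferase reporter; potency of inhibitors that lower reporter luminescence.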 The class given is functional.
Assay [40] can be described thus: inhibitors acting on PAX2 in cells – cell-based, plate reader, dry powder samples, selectivity assay for PAX8 inhibitor project, dose response (AID 743048).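 Further: HEK293 cells carrying a WT1 promoter luciferase reporter driven by expressed Pax2; potency is for inhibition of Pax2 driven reporter signal.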 The class given is functional.
The nature of assay [41]: PAX8-dependent cell viability loss – plate reader, dry powder, dose response (AID 743049). It is filed as functional, cell-based.

Sequence of Paired box protein Pax-8 (Q06710 whole entry): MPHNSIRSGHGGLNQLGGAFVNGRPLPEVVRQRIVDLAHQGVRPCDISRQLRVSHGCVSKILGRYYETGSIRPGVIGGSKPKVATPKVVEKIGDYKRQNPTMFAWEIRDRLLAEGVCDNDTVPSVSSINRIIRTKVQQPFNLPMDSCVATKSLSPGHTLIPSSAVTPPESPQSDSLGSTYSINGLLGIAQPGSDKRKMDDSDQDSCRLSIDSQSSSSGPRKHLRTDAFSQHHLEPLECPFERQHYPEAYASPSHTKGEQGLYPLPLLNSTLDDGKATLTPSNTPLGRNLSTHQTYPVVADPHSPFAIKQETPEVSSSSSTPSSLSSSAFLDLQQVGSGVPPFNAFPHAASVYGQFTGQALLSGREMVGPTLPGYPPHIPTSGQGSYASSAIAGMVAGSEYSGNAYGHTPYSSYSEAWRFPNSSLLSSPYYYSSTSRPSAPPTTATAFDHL
Sequence of Voltage-dependent T-type calcium channel subunit alpha-1H (O95180 whole entry): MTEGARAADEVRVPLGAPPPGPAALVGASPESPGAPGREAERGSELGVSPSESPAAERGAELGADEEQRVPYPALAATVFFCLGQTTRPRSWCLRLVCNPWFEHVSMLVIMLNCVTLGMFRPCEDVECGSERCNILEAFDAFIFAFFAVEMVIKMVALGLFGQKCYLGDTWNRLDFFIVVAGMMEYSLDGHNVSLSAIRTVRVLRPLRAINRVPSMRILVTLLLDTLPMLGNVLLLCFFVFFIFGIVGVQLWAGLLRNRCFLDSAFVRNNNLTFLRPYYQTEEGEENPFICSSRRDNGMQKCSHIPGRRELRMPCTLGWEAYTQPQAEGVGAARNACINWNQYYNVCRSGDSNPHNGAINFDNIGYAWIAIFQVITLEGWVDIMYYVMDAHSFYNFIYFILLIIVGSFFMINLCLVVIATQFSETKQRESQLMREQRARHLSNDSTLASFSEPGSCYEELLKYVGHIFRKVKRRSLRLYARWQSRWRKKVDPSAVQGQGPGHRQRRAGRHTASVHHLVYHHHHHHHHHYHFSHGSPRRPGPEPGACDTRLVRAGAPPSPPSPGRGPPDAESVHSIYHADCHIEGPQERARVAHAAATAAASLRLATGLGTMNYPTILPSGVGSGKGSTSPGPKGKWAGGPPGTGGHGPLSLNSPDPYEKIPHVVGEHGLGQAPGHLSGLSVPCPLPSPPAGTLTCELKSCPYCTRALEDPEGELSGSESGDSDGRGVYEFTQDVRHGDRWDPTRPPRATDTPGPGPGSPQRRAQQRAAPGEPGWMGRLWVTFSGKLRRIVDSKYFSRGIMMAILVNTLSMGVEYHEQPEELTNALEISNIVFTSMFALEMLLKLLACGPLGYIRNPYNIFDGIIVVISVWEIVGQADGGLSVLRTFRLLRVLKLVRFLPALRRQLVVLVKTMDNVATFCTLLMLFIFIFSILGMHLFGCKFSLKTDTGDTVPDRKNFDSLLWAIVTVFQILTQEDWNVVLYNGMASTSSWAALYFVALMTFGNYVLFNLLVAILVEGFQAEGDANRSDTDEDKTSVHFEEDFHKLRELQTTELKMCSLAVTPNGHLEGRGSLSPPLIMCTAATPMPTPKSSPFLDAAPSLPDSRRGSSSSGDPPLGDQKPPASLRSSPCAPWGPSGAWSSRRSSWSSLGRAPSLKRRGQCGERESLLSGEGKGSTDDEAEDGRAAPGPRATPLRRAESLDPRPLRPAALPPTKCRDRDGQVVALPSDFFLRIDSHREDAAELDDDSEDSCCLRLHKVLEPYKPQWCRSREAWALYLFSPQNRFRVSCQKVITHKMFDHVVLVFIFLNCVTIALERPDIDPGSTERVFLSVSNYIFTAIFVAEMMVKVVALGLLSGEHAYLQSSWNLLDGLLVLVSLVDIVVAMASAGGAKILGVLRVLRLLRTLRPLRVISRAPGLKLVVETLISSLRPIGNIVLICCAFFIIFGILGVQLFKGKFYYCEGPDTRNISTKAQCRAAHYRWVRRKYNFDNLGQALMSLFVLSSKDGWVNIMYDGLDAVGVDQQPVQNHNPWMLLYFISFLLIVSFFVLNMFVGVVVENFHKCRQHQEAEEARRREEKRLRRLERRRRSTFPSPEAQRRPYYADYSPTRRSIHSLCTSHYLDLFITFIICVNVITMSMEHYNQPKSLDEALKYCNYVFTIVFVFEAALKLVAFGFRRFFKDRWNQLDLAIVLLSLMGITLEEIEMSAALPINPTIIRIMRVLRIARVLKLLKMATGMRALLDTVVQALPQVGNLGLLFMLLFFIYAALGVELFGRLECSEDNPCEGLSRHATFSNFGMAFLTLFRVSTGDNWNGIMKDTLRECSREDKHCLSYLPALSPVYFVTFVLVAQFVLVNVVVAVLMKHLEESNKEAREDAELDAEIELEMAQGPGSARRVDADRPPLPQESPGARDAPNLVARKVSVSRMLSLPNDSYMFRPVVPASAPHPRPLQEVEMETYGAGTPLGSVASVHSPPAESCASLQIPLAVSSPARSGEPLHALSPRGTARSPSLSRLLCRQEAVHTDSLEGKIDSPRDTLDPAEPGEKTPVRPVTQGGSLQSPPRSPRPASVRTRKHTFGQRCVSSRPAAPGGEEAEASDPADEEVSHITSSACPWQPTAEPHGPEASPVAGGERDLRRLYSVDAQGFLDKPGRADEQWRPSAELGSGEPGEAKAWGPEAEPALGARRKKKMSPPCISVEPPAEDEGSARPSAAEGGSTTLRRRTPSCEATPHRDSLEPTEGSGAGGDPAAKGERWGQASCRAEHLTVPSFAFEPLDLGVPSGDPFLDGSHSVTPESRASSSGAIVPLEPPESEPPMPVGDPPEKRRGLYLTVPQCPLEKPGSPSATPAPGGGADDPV
Sequence of Metabotropic glutamate receptor 3 (P31422 whole entry): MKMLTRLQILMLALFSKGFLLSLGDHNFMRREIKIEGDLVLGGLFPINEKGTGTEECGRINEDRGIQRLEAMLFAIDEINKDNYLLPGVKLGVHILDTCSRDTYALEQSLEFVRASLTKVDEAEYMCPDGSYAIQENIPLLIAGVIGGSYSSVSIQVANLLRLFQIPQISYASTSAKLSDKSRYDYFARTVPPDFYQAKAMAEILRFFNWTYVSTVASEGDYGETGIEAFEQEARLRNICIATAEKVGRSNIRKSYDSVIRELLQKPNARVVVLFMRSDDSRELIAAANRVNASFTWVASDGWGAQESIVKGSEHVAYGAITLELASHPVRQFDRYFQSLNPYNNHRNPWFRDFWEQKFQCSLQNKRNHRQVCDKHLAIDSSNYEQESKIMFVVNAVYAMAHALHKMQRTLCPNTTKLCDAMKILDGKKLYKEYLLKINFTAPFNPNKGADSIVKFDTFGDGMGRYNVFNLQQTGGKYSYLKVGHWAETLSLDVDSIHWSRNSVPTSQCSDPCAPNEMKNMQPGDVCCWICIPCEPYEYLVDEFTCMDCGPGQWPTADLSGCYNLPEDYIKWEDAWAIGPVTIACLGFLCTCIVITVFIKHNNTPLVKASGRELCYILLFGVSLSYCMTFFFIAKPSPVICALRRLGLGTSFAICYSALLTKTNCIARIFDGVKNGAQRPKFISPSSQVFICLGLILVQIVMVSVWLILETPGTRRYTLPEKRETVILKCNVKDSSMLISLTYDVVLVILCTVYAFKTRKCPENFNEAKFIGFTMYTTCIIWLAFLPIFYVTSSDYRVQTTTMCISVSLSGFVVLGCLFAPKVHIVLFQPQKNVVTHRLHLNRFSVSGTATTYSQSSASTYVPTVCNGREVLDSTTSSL

As to `COc1ccc(C2=C(NC(=O)c3ccc(Cl)cc3)C(=O)c3ccccc3C2=O)cc1`, the AC50 – broadly, the concentration at which the activity in the assay is half-maximal – in [1] is 35.3 µM (active); in assay [2] it was 18.2 µM (active).

As to `O=C(c1ccc2cc(-c3cccc(OCc4ccccc4)c3)ccc2c1)N1CCCC(CO)C1` (stereo not drawn), the IC50 – broadly, the concentration that inhibits the measured activity by half – in assay [3] is 1.08 µM (inactive).

Consider `CCCCOc1ccc(-c2cnc3ccccc3n2)cc1`, for which the AC50 was > 52 µM (inactive) in [4]; 6.65 µM (active) in assay [5]; 4.56 µM (active) in [6]; > 52 µM (inactive) in assay [7]; > 52 µM (inactive) in assay [8].

On to `O=S(=O)(c1ccc2c(c1)C(=NO)c1cc(S(=O)(=O)N3CCCCC3)ccc1-2)N1CCCCC1`, for which the half-maximal effective concentration (EC50) (as a rule, the concentration at which the effect is half-maximal) is 2.71 µM (inconclusive) in the assay with BJ [9]; 3.8 µM (active) in [10]; 0.412 µM (active) in assay [12]; 12.3 µM (active) in assay [13]; 2.68 µM (inconclusive) in [15]; 6.01 µM (active) in [16]. Moreover, the EC50 in [20] is 7.79 µM (active); in assay [21], 0.352 µM (active); with BJ [22], 1.02 µM (inconclusive); in the assay with BJ [23], 2.97 µM (active); in [24] it was 0.3 µM (active); in the assay with BJ [26], 2.65 µM (inconclusive). The values for the 50% effective concentration (EC50) in [27] and in assay [28] were 0.749 µM (active) and 0.39 µM (active), respectively. Besides, the concentration at half-maximal activity (AC50) was 0.879 µM (active) in assay [11]; 2.99 µM (active) with HEK293; 1.5 µM (active) in assay [14]; 0.871 µM (active) at Paired box protein Pax-8; 0.767 µM (active) in assay [17]; 0.794 µM (active) in assay [18]. Besides, the AC50 is 0.73 µM (active) in [19] and 0.287 µM (active) in [25].

For `CCN1C(=O)c2cccc3c(S(=O)(=O)N(C)C)ccc1c23`, the AC50 in “cells” is > 52 µM (inactive).

`COc1cccc(Nc2nc(C(N)Cc3ccc(F)cc3)cs2)n1` (stereo not drawn): the AC50 in assay [4] is 16.8 µM (active); in assay [5], 31.1 µM (active); in assay [6] it was 28.5 µM (active); in assay [7] it was 14.5 µM (active); in assay [8], 13.9 µM (active).

For the compound `COCC#Cc1ccc([C@@H]2[C@H](CO)N3CCCCN(S(=O)(=O)c4ccc(OC)cc4)C[C@@H]23)cc1`, the AC50 in [29] is 1.33 µM (active); in assay [30], 1.81 µM (active); in assay [31] it was 1.48 µM (active); in [32], 98.4 µM (active); in assay [33], 2.47 µM (active).

`C[C@H]1CN([C@@H](C)CO)C(=O)c2ccccc2-c2ccccc2CO[C@H]1CN(C)S(=O)(=O)c1ccccc1C#N`: the AC50 in [34] is 47 µM (active); in assay [18] it was 3.49 µM (active); in assay [19] it was 0.838 µM (active); in assay [35] it was > 70 µM (inactive).

For the compound `CS(=O)(=O)N1CC(=O)N2[C@H](CO)[C@H](c3ccc(C#CCC4CCCC4)cc3)[C@H]2C1`, the AC50 in assay [36] was 23 µM (active); at Paired box protein Pax-8 it was 5.98 µM (active); in assay [37], 33.1 µM (active).

On to `COC(=O)[C@@]1(CCS(=O)(=O)c2ccccc2)N=C(c2ccc(OCCCO)cc2)O[C@H]1c1ccccc1`, for which the AC50 is 95 µM (active) in [36]; 14.1 µM (active) in assay [38]; 77.3 µM (active) in assay [39]; 58.6 µM (active) in assay [40]; > 100 µM (inactive) in [41].
